Assay results taken from patent US10981858B2, “Dendrimer and formulations thereof” (Priostar Pty Ltd, priority 2015, dated 2021).

What was measured:
[1] = Solubilization of water insoluble surfactant Ethoxylated Lauryl alcohol-3 M in LA-9 solution; format: physicochemical; conditions: for Quantity LA-3 added to LA-9 solution: 50 g, until hazy
Procedure: 5% w/w aqueous solution of Ethoxylated Lauryl alcohol-9 mole (water soluble surfactant) was prepared in Deionized water (2.5 g in 47.5 ml). Dendrimer compounds 1 and 4 were diluted 70:30 w/w in Diethylene glycol. The 5% Ethoxylated Lauryl alcohol-9 M (LA-9) solution was combined with dendrimer DEG solution at 90:10, 80:20 and 70:30 w/w (total weight 50 g).
Ethoxylated lauryl alcohol-3 mole (water insoluble surfactant) was added dropwise, while stirring, to the 50 g LA-9 solution (with or without dendrimer), until it became hazy. The weight of Ethoxylated lauryl alcohol-3 M added was recorded.

[2] = Additional tebuconazole formulations: suspension stability and viscosity; format: physicochemical; conditions: additional tebuconazole formulation, 0.8% additive
Source text: Additional formulations were developed, and formulation characteristics were studied for suspension stability, and viscosity.

Quantity LA-3 added to LA-9 solution ([1]; ratio 5% LA-9 solution:dendrimer/DEG solution 70:30 (w/w), 21% dendrimer (w/w)): 2.01 g | Quantity LA-3 added to LA-9 solution ([1]; ratio 5% LA-9 solution:dendrimer/DEG solution 80:20 (w/w), 14% dendrimer (w/w)): 2.86 g | Quantity LA-3 added to LA-9 solution ([1]; ratio 5% LA-9 solution:dendrimer/DEG solution 90:10 (w/w), 7% dendrimer (w/w)): 2.11 g | Increase in solubilisation of Ethoxylated lauryl alcohol-3 M ([1]; over LA-9 without dendrimer): 72% | Observation: sediment at 0 C. ([2]; 0 C.): No sediment at 0 C., | Viscosity (cP) 0 C. ([2]; 0 C.): 514 cP | Observation: sediment at RT ([2]; RT): fluffy, low sediment | Viscosity (cP) RT ([2]; RT): 672 cP
SMILES: OCCN(CCO)CC(O)COCC(COCC(O)CN(CCO)CCO)(COCC(O)CN(CCO)CCO)COCC(COCC(O)CN(CCO)CCO)(COCC(O)CN(CCO)CCO)COCC(O)CN(CCO)CCO (centres unmarked) [Compound 4, 9,9′-(Oxybis(methylene))bis(9-((3-(bis(2-hydroxyethyl)amino)-2-hydroxypropoxy)methyl)-3,15-bis(2-hydroxyethyl)-7,11-dioxa-3,15-diazaheptadecane-1,5,13,17-tetraol)]
